Assay results reported in PubChem BioAssay AID256 (DTP/NCI, 2004).
“And” between values parts separate entries of the source, which are not always exact repeats. Equal values may be shown once. Toxic doses and inconclusive results are not listed.

Test system: CD2F1 mice, L1210 leukemia ip, survival T/C
Test: NCI In Vivo Anticancer Drug Screen. Data for tumor model L1210 Leukemia (intraperitoneal) in CD2F1 (CDF1) mice
Details: higher = longer survival
Procedure, shortened: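 Vehicle-treated tumor-bearing mice served as controls (C) for compound-treated mice (T). Reported figure is T divided by C.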

[1] = endpoint: mean survival time, dose: 100.0 mg/kg/injection, schedule: Q04DX002 (ip), vehicle: saline with Tween-80
[2] = endpoint: mean survival time, dose: 200.0 mg/kg/injection, schedule: Q04DX002 (ip), vehicle: saline with Tween-80
[3] = endpoint: mean survival time, dose: 400.0 mg/kg/injection, schedule: Q04DX002 (ip), vehicle: saline with Tween-80
[4] = endpoint: mean survival time, dose: 12.5 mg/kg/injection, schedule: Q01DX009 (ip), vehicle: saline with Tween-80
[5] = endpoint: mean survival time, dose: 25.0 mg/kg/injection, schedule: Q01DX009 (ip), vehicle: saline with Tween-80
[6] = endpoint: mean survival time, dose: 100.0 mg/kg/injection, schedule: Q01DX009 (ip), vehicle: saline with Tween-80
[7] = endpoint: mean survival time, dose: 200.0 mg/kg/injection, schedule: Q01DX009 (ip), vehicle: saline with Tween-80
[8] = endpoint: mean survival time, dose: 400.0 mg/kg/injection, schedule: Q01DX009 (ip), vehicle: saline with Tween-80
[9] = endpoint: mean survival time, dose: 100.0 mg/kg/injection, schedule: Q04DX003 (ip), vehicle: saline with Tween-80
[10] = endpoint: mean survival time, dose: 200.0 mg/kg/injection, schedule: Q04DX003 (ip), vehicle: saline with Tween-80
[11] = endpoint: mean survival time, dose: 50.0 mg/kg/injection, schedule: Q01DX009 (ip), vehicle: saline
[12] = endpoint: mean survival time, dose: 100.0 mg/kg/injection, schedule: Q01DX009 (ip), vehicle: saline
[13] = endpoint: mean survival time, dose: 200.0 mg/kg/injection, schedule: Q01DX009 (ip), vehicle: saline
[14] = endpoint: mean survival time, dose: 400.0 mg/kg/injection, schedule: Q04DX003 (ip), vehicle: saline with Tween-80

In the case of `Cc1cccc(Cl)c1NC(=O)/C=C/c1ccccc1`, the T/C [1] is reported as 87 % of control, the T/C [2] is reported as 94 % of control and the T/C [3] is reported as 105 % of control.
For `Cc1ccc(C(=O)C[n+]2cccc3ccccc32)c(C)c1`, the T/C (endpoint: mean survival time, dose: 6.25 mg/kg/injection, schedule: Q01DX009 (ip), vehicle: saline with Tween-80) was 101 % of control, the T/C [4] was 94 % of control and the T/C [5] was 95 % of control.
In the case of `CCOC(=O)C(=Cc1ccc(O)c(OC)c1)C(=O)OCC`, the T/C (endpoint: mean survival time, dose: 100.0 mg/kg/injection, schedule: Q01DX001 (ip), vehicle: saline with Tween-80) is reported as 104 % of control, the T/C [6] is reported as 93 % of control and the T/C (endpoint: mean survival time, dose: 200.0 mg/kg/injection, schedule: Q01DX001 (ip), vehicle: saline with Tween-80) is reported as 101 % of control. For the same molecule, the T/C [7] was 101 % of control, the T/C (endpoint: mean survival time, dose: 400.0 mg/kg/injection, schedule: Q01DX001 (ip), vehicle: saline with Tween-80) was 108 % of control and the T/C [8] was 101 % of control.
For `C/C(CC(=O)Nc1ccccn1)=N\c1ccccn1`, the T/C [9] was 96 % of control and the T/C [10] was 94 % of control.
In the case of `CCCCCCCCCCCCCCCOc1ccc2ccccc2c1`, the T/C (endpoint: mean survival time, dose: 100.0 mg/kg/injection, schedule: Q01DX001 (ip), vehicle: Klucel (hydroxypropylcellulose) (HPC)) is reported as 102 % of control, the T/C (endpoint: mean survival time, dose: 200.0 mg/kg/injection, schedule: Q01DX001 (ip), vehicle: Klucel (hydroxypropylcellulose) (HPC)) is reported as 94 % of control and the T/C (endpoint: mean survival time, dose: 400.0 mg/kg/injection, schedule: Q01DX001 (ip), vehicle: Klucel (hydroxypropylcellulose) (HPC)) is reported as 90 % of control.
In the case of `CC(=O)C1C(=O)C(=O)OC1C` (stereo not given), the T/C [11] is reported as 102 % of control, the T/C [12] is reported as 98 % of control and the T/C [13] is reported as 101 % of control.
With `O=S(=O)(OCCOC(c1ccccc1)(c1ccccc1)c1ccccc1)c1ccc(Br)cc1` the T/C [9] was 94 % of control, the T/C [10] was 90 % of control and the T/C [14] was 98 % of control.
`[Br][Pt+2][Br].[NH-]c1ccccc1F.[NH-]c1ccccc1F` was tested, and the T/C (endpoint: mean survival time, dose: 3.13 mg/kg/injection, schedule: Q04DX003 (ip), vehicle: distilled water + Tween-80) was 104 % of control, the T/C (endpoint: mean survival time, dose: 6.25 mg/kg/injection, schedule: Q04DX003 (ip), vehicle: distilled water + Tween-80) was 104 % of control and the T/C (endpoint: mean survival time, dose: 12.5 mg/kg/injection, schedule: Q04DX003 (ip), vehicle: distilled water + Tween-80) was 108 % of control. The T/C (endpoint: mean survival time, dose: 25.0 mg/kg/injection, schedule: Q04DX003 (ip), vehicle: distilled water + Tween-80) was 108 % of control, the T/C (endpoint: mean survival time, dose: 50.0 mg/kg/injection, schedule: Q04DX003 (ip), vehicle: distilled water + Tween-80) was 101 % of control and the T/C (endpoint: mean survival time, dose: 100.0 mg/kg/injection, schedule: Q04DX003 (ip), vehicle: distilled water + Tween-80) was 93 % of control.
With `O=S(=O)(O)C1CCC(O)C2[N-]CCCC21.O=S(=O)(O)C1CCC(O)C2[N-]CCCC21.[Zn+2]` (stereo not given) the T/C [6] was 95 % of control, the T/C [9] was 96 % of control and the T/C [10] was 93 % of control. For the same molecule, the T/C [8] was 86 % of control and the T/C [14] was 96 % of control.
For `Cc1ccc(S(=O)(=O)NC(=O)C(=[N+]=[N-])c2ccc([N+](=O)[O-])cc2)cc1`, the T/C (endpoint: median survival time, dose: 25.0 mg/kg/injection, schedule: Q04DX002 (ip), vehicle: saline with Tween-80) was 100 % of control, the T/C (endpoint: median survival time, dose: 50.0 mg/kg/injection, schedule: Q04DX002 (ip), vehicle: saline with Tween-80) was 90 % of control and the T/C (endpoint: median survival time, dose: 100.0 mg/kg/injection, schedule: Q04DX002 (ip), vehicle: saline with Tween-80) was 90 % of control. For the same molecule, the T/C (endpoint: median survival time, dose: 200.0 mg/kg/injection, schedule: Q04DX002 (ip), vehicle: saline with Tween-80) was 90 % of control.
With `O=c1[nH]c(=O)n(C2CC(O)C(CO)O2)cc1COCc1ccccc1` (stereo not given) the T/C (endpoint: mean survival time, dose: 100.0 mg/kg/injection, schedule: Q01DX005 (ip), vehicle: saline) was 95 % of control and the T/C (endpoint: mean survival time, dose: 200.0 mg/kg/injection, schedule: Q01DX005 (ip), vehicle: saline) was 105 % of control and 97 % of control.
For `N#C/C(=C\c1cccc2ccccc12)c1ccccc1`, the T/C [6] was 100 % of control, the T/C [9] was 93 % of control and the T/C [7] was 96 % of control. The T/C [10] was 98 % of control, the T/C [8] was 97 % of control and the T/C [14] was 102 % of control.
For `Nc1nc2nc[n-]c2c(=O)[nH]1.[NH2-].[NH2-].[NH2-].[NH2-].[NH2-].[Ru+6]`, the T/C (endpoint: mean survival time, dose: 6.25 mg/kg/injection, schedule: Q04DX003 (ip), vehicle: water) was 96 % of control, the T/C (endpoint: mean survival time, dose: 12.5 mg/kg/injection, schedule: Q04DX003 (ip), vehicle: water) was 96 % of control and the T/C (endpoint: mean survival time, dose: 25.0 mg/kg/injection, schedule: Q04DX003 (ip), vehicle: water) was 102 % of control.
`O=NN(CCCl)C(=O)Nc1ccc(CCO)cc1` was tested, and the T/C (endpoint: mean survival time, dose: 0.31 mg/kg/injection, schedule: Q01DX001 (ip), vehicle: other) was 103 % of control, the T/C (endpoint: mean survival time, dose: 0.62 mg/kg/injection, schedule: Q01DX001 (ip), vehicle: other) was 97 % of control and the T/C (endpoint: mean survival time, dose: 1.25 mg/kg/injection, schedule: Q01DX001 (ip), vehicle: other) was 105 % of control. The T/C (endpoint: mean survival time, dose: 2.03 mg/kg/injection, schedule: Q01DX009 (ip), vehicle: acetone) was 205 % of control, the T/C (endpoint: mean survival time, dose: 2.5 mg/kg/injection, schedule: Q01DX001 (ip), vehicle: other) was 120 % of control and the T/C (endpoint: mean survival time, dose: 3.08 mg/kg/injection, schedule: Q01DX009 (ip), vehicle: saline with Tween-80) was 203 % of control. The T/C (endpoint: mean survival time, dose: 4.62 mg/kg/injection, schedule: Q01DX009 (ip), vehicle: saline with Tween-80) was 300 % of control, the T/C (endpoint: mean survival time, dose: 9.75 mg/kg/injection, schedule: Q01DX001 (ip), vehicle: other) was 277 % of control and the T/C (endpoint: mean survival time, dose: 19.5 mg/kg/injection, schedule: Q01DX001 (ip), vehicle: other) was 361 % of control. For the same molecule, the T/C (endpoint: mean survival time, dose: 39.0 mg/kg/injection, schedule: Q01DX001 (ip), vehicle: other) was 98 % of control, the T/C (endpoint: mean survival time, dose: 100.0 mg/kg/injection, schedule: Q01DX001 (ip), vehicle: carboxymethylcellulose (CMC)) was 172 % of control and the T/C (endpoint: mean survival time, dose: 200.0 mg/kg/injection, schedule: Q01DX001 (ip), vehicle: carboxymethylcellulose (CMC)) was 170 % of control. For the same molecule, the T/C (endpoint: mean survival time, dose: 400.0 mg/kg/injection, schedule: Q01DX001 (ip), vehicle: carboxymethylcellulose (CMC)) was 307 % of control.
`Cc1cn(C2CC3O[P@](=S)(Nc4ccccc4)OCC3O2)c(=O)[nH]c1=O` (stereo not given in full) was tested, and the T/C (endpoint: median survival time, dose: 12.75 mg/kg/injection, schedule: Q01DX005 (ip), vehicle: saline with Tween-80) was 100 % of control, the T/C (endpoint: median survival time, dose: 25.5 mg/kg/injection, schedule: Q01DX005 (ip), vehicle: saline with Tween-80) was 100 % of control and the T/C (endpoint: median survival time, dose: 51.0 mg/kg/injection, schedule: Q01DX005 (ip), vehicle: saline with Tween-80) was 100 % of control. For the same molecule, the T/C (endpoint: median survival time, dose: 102.0 mg/kg/injection, schedule: Q01DX005 (ip), vehicle: saline with Tween-80) was 93 % of control.
`CN(C)CCC(O)C(O)CCN(C)C` (stereo not given) was tested, and the T/C (endpoint: mean survival time, dose: 75.0 mg/kg/injection, schedule: Q01DX001 (ip), vehicle: other) was 102 % of control, the T/C (endpoint: mean survival time, dose: 150.0 mg/kg/injection, schedule: Q01DX001 (ip), vehicle: other) was 102 % of control and the T/C (endpoint: mean survival time, dose: 300.0 mg/kg/injection, schedule: Q01DX001 (ip), vehicle: other) was 103 % of control.
With `NC(=O)COc1ccc(F)cc1` the T/C [1] was 97 % of control, the T/C [2] was 90 % of control and the T/C [3] was 101 % of control.
`OC1(C2(O)CCCC2)CCCC1` was tested, and the T/C [6] was 105 % of control, the T/C [7] was 111 % of control and the T/C [8] was 103 % of control.
`CNCCN1CCC(Cc2ccccc2)CC1` was tested, and the T/C [11] was 102 % of control, the T/C [12] was 100 % of control and the T/C [13] was 106 % of control.
With `CN1CCN(Cc2nc3cccc4c3c([n+]2[O-])-c2ccccc2-4)CC1` the T/C [4] was 91 % of control and 97 % of control and 102 % of control, the T/C [5] was 96 % of control and 101 % of control and 102 % of control and the T/C (endpoint: mean survival time, dose: 50.0 mg/kg/injection, schedule: Q01DX009 (ip), vehicle: saline with Tween-80) was 94 % of control and 102 % of control and 103 % of control. For the same molecule, the T/C [6] was 117 % of control and 105 % of control and 108 % of control.
`CCOC(=O)C(Cc1ccccc1)P(=O)(OCC)OCC` (stereo not given) was tested, and the T/C (endpoint: mean survival time, dose: 100.0 mg/kg/injection, schedule: Q01DX001 (ip), vehicle: saline) was 108 % of control, the T/C (endpoint: mean survival time, dose: 200.0 mg/kg/injection, schedule: Q01DX001 (ip), vehicle: saline) was 108 % of control and the T/C (endpoint: mean survival time, dose: 400.0 mg/kg/injection, schedule: Q01DX001 (ip), vehicle: saline) was 100 % of control.
With `O=C1CC23CCCN2CCc2cc4c(cc2C3=C1O)OCO4` (stereo not given) the T/C (endpoint: mean survival time, dose: 1.56 mg/kg/injection, schedule: Q01DX009 (ip), vehicle: Klucel (hydroxypropylcellulose) (HPC)) was 102 % of control, the T/C (endpoint: mean survival time, dose: 3.13 mg/kg/injection, schedule: Q01DX009 (ip), vehicle: Klucel (hydroxypropylcellulose) (HPC)) was 101 % of control and the T/C (endpoint: mean survival time, dose: 6.25 mg/kg/injection, schedule: Q01DX009 (ip), vehicle: Klucel (hydroxypropylcellulose) (HPC)) was 104 % of control. The T/C (endpoint: mean survival time, dose: 12.5 mg/kg/injection, schedule: Q01DX009 (ip), vehicle: Klucel (hydroxypropylcellulose) (HPC)) was 102 % of control and the T/C (endpoint: mean survival time, dose: 25.0 mg/kg/injection, schedule: Q01DX009 (ip), vehicle: Klucel (hydroxypropylcellulose) (HPC)) was 95 % of control.
